Tests used:
Ab42 fibrils = target: T1, Ab42 fibrils (Homo sapiens, UniProt P05067); assay: Measurement of maximum excitation and emission wavelengths (SpectraMax M2); format: physicochemical; details: 10 μM Ab42 fibrils, 5 μM compound, PBS buffer
T1 construct: 10 μM of Ab42 fibrils
Description: The maximum excitation and emission wavelengths λmax of the Compounds 1, 2, 4, and 5 according to the present invention were measured by SpectraMax M2 (molecular devices). 10 μM of Ab42 fibrils and 5 μM of each compound, produced by the aforementioned method, as final concentrations were used in a PBS buffer solution. In general, the excitation λmax is determined by scanning the fixed first emission, and the emission λmax is determined by scanning the excitation spectrum with the fixed λmax. The absorbance of each of the Compound 1, Compound 2, Compound 4, and Compound 5 synthesized above was measured, and the results thereof are shown in FIG. 2.

[1] = target: T2, beta-amyloid (Aβ42 aggregate) (Homo sapiens, UniProt P05067); assay: Evaluation of activity (fluorescence) before and after binding to beta-amyloid; details: for Change in fluorescence intensity after binding to beta-amyloid: before vs after binding to Aβ42 aggregate; for Faβ/F0 (fluorescence reactivity to the Aβ peptide): before vs after binding to Aβ peptide
T2 construct: 10 μM of Ab42 fibrils
Description: Regarding each of the Compound 1, Compound 2, Compound 4, and Compound 5 synthesized above, the activity before and after binding to beta-amyloid was evaluated, and the results thereof are shown in FIG. 3. […] Moreover, the absorption wavelengths of each of the Compound 1, Compound 2, Compound 4, and Compound 5 before and after binding to beta-amyloid are shown in Table 2 below. […] In particular, regarding the fluorescence reactivity to the Aβ peptide, the Faβ/F0 values of the Compounds 1, 2, 4, and 5 were 4.3, 11.6, 3.1, and 9.6, respectively, indicating high fluorescence properties (see Table 2 below). Furthermore, from FIG. 3, it was confirmed that there was a clear difference in the emission wavelength before and after the compound according to the present invention bound to the amyloid plaque.

[2] = Retina-targeting experiment in laboratory mouse (IVIS spectrum CT imaging); format: in vivo; details: 8 mg/kg tail vein, 3-month-old nude mouse
Description: A water-soluble Compound 1 (8 mg/kg) was injected into the tail vein of a 3-month-old nude mouse, and imaging was carried out with an IVIS spectrum CT system device, and the results thereof are shown in FIG. 4.

T1 sequence (P05067 672-713 limits assumed): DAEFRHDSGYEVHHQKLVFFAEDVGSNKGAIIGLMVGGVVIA
T2 sequence (P05067 672-713 limits assumed): as above

Row | λem (Ab42 fibrils) | λex (Ab42 fibrils) | Change in fluorescence intensity after binding to beta-amyloid [1] | Faβ/F0 (fluorescence reactivity to the Aβ peptide) [1] | fluorescence signal in the eye of mouse ([2]; 1 minute after intravenous injection) | fluorescence signal in the eye of mouse ([2]; 10 minutes after intravenous injection) | Structure (SMILES)
1 | 620 nm | 560 nm | 4.3 fold | 4.3 | strong fluorescence signal | weak fluorescence signal | CN(C)c1ccc(/C=C/C2=[N+](CCCCS(=O)(=O)[O-])c3ccc4ccccc4c3C2(C)C)cc1 [Compound 1]
2 | 765 nm | 805 nm | 11.6 fold | 11.6 |  |  | CN(C)c1ccc(-c2ccc(/C=C/C3=[N+](CCCCS(=O)(=O)[O-])c4ccc5ccccc5c4C3(C)C)s2)cc1 [Compound 2, (E)-4-(2-(2-(5-(4-(dimethylamino)phenyl)thiophen-2-yl)vinyl)-1,1-dimethyl-1H-benzo[e]indol-3-ium-3-yl)butane-1-sulfonate]
3 | 620 nm | 570 nm | 3.1 fold | 3.1 |  |  | CC1(C)C(/C=C/c2ccc(N3CCNCC3)cc2)=[N+](CCCCS(=O)(=O)[O-])c2ccc3ccccc3c21 [Compound 4, (E)-4-(1,1-dimethyl-2-(4-(piperazin-1-yl)styryl)-1H-benzo[e]indol-3-ium-3-yl)butane-1-sulfonate]
4 | 760 nm | 575 nm | 9.6 fold | 9.6 |  |  | CNc1ccc(-c2ccc(/C=C/C3=[N+](CCCCS(=O)(=O)[O-])c4ccc5ccccc5c4C3(C)C)s2)cc1 [Compound 5, (E)-4-(1,1-dimethyl-2-(2-(5-(4-(methylamino)phenyl)thiophen-2-yl)vinyl)-1H-benzo[e]indol-3-ium-3-yl)butane-1-sulfonate]
